From patent publication US10011571B2, “Preparation method for aromatic heterocyclic compound used as selective JAK3 and/or JAK1 kinase inhibitor and application of aromatic heterocyclic compound” (SHENZHEN CHIPSCREEN BIOSCIENCES, LTD., priority 2014, dated 2018)

What was measured:
JAK2 = JAK2 (Homo sapiens (Human), UniProt O60674); assay: Z'-LYTE enzymatic activity detection, JAK2; format: biochemical; conditions: test compound 30 nM; for inhibition at 0.03 µM: read-out: JAK2 % inhibitory rate @30 nM
JAK2, sequence (O60674 whole entry): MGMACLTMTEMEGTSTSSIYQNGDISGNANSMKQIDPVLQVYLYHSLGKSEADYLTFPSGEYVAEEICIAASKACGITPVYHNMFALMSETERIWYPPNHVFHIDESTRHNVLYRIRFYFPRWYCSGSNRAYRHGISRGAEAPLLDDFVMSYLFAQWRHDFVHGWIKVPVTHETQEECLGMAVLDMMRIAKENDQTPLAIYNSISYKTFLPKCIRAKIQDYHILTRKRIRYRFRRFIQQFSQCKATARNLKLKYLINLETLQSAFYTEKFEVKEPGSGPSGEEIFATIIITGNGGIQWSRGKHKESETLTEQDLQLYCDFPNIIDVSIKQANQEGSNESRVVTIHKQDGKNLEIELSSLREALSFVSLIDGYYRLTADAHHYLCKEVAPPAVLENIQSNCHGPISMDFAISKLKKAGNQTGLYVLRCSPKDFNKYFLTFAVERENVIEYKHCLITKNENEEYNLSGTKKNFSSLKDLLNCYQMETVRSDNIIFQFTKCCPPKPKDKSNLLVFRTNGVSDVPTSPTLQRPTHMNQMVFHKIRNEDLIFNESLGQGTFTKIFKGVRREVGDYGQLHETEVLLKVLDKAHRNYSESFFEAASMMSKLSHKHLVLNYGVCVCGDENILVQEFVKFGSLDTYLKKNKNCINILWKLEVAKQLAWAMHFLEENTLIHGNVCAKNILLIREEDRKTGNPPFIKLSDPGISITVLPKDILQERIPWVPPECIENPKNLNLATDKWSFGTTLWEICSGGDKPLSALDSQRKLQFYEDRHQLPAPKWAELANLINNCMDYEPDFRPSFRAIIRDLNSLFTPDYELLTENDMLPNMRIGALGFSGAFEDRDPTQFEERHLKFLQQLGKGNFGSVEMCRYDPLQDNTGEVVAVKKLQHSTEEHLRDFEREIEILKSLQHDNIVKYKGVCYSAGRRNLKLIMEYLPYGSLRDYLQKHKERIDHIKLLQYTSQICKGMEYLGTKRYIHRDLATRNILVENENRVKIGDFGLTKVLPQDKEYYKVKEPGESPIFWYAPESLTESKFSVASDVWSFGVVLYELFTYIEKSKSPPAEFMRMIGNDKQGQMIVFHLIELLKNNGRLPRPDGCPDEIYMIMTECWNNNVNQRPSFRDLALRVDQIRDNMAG
Description: (§1) The basic principle of in vitro enzymatic activity assay is based on the difference between the intensities of fluorescence signals generated at different wavelengths (445 nm and 520 nm) from the phosphorylated substrate and non-phosphorylated substrate, in which the specific fluorescence-labeled substrate is phosphorylated by the kinase. When different test compounds are added, the inhibition of kinase activity is represented as the different degrees of substrate phosphorylation, and thus as the different intensities of fluorescence signal, based on which the inhibitory activity of the compound on the kinase can be calculated. Basic detection principle is illustrated in FIG. 1.
(§2) In an enzymatic inhibitory activity detection, GST-labeled human recombinant JAK kinases, including JAK1/PV4774, JAK2/PV4210, JAK3/PV3855, TYK2/PV4790 and their corresponding specific substrates, including Tyr6 (Z′-LYTE® Kinase Assay Kit-Tyrosine 6 Peptide, JAK1/PV4122), Tyr4 (Z′-LYTE® Kinase Assay Kit-Tyrosine 4 Peptide, JAK2/PV3193), Tyr4 (Z′-LYTE® Kinase Assay Kit-Tyrosine 4 Peptide, JAK3/PV3193), Tyr3 (Z′-LYTE® Kinase Assay Kit-[…], TYK2/PV3192) are used. In all tests, development reagent A (PV3297) was used as the test agent. All materials mentioned above were purchased from Invitrogen.
(§3) (1) Preparation: kinase reaction buffer (working solution) is prepared according to the instruction; a concentration gradient of the test compound is prepared by dilution using the kinase reaction buffer (the highest compound concentration is 10 μM for JAK1, JAK2, and TYK2 detection, and 1 μM for JAK3 detection, respectively).
(§4) (2) 10 μl of reaction system, comprising 2.5 μL test compound, 5 μL kinase reaction buffer and 2.5 μL ATP solution (provided by the kit), is mixed and reaction is performed at room temperature for 1 h.
(§5) (3) Controls, including a solvent control without the test compound, a negative control without ATP and a positive control with the phosphorylated substrate, are tested together with the detection. All tests are carried out in triplicate.
(§6) (4) After the enzymatic reaction, 5 μL pre-formulated development buffer is added, and reaction is performed at room temperature for 1 h. Subsequently, the reaction is terminated by adding 5 μL stop buffer.
(§7) (5) The fluorescence signal in each well is detected by an Ascent Fluoroskan FL reader (Thermo Labsystems) at an excitation wavelength of 400 nm, and emission wavelengths of 445 nm and 520 nm. The proportion of substrate phosphorylation is obtained by reference to the fluorescence signal intensity C445/F520.
(§8) (6) The enzymatic inhibitory rate of the test compound can be calculated based on the following equation: Inhibitory rate (%)=1−the proportion of substrate phosphorylation in the detection well/the proportion of substrate phosphorylation in the solvent control well. The half-inhibitory concentration (IC50) can be calculated using an IC50 calculator based on the inhibitory rates of phosphorylation for the test compounds at different concentration gradients.
(§9) Based on the above method, the compounds described herein are enzymatically evaluated in vitro for JAKs (the concentration of the test compound is 30 nM for JAK3 and JAK2 test, and 300 nM for JAK1 test) using Xeljanz (tofacitinib citrate) as the positive control.

JAK3 = JAK3 (Homo sapiens (Human), UniProt P52333); assay: Z'-LYTE enzymatic activity detection, JAK3; format: biochemical; conditions: test compound 30 nM; for inhibition at 0.03 µM: read-out: JAK3 % inhibitory rate @30 nM
JAK3, sequence (P52333 whole entry): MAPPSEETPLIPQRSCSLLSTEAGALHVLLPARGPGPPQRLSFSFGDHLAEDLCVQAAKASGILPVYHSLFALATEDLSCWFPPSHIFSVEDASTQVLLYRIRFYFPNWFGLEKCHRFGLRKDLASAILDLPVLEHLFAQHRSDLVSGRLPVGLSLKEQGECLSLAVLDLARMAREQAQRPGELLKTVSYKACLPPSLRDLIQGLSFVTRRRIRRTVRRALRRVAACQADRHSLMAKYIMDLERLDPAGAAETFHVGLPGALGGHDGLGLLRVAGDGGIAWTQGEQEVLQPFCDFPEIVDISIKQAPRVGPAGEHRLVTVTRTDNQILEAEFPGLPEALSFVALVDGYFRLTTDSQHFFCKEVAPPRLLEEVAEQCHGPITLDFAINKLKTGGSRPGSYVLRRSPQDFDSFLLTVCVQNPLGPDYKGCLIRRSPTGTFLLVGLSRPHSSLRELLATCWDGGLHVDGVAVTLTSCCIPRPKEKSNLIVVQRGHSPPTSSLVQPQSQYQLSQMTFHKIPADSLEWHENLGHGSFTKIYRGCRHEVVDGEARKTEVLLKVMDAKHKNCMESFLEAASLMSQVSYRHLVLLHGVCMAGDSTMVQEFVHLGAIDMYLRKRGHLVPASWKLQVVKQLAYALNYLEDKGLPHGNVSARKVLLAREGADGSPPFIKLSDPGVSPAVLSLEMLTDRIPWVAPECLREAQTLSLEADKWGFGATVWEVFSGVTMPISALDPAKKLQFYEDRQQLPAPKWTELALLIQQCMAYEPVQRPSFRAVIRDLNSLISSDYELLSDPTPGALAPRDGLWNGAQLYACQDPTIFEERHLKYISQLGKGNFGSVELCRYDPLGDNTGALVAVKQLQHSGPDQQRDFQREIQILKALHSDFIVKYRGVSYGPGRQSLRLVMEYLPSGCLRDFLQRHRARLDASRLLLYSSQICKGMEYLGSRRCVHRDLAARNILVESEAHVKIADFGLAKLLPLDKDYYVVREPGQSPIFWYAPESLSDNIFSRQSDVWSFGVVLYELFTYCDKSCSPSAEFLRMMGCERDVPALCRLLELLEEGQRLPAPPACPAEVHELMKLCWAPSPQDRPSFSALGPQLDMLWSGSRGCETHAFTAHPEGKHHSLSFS
Description: as §1, §2, §3, §4, §5, §6, §7, §8, §9

HeLa cells = assay: Cell growth activity assay (MTS), HeLa cell model; format: cell-based, human; set-up: activity: dose or concentration left out as unconfirmed; conditions: Homo sapiens, HeLa, 72 h, read-out: HeLa % growth rate
Description: (§10) MTS assay is a routine method for cell toxicity detection. The basic principle is based on the capacity of dehydrogenase in the mitochondria of living cells to reduce a novel yellow […] MTS to formazan, so that the amount of living cells is proportional to the amount of formazan product by detecting the absorbance at 490 nm (OD), thereby speculating the amount of living cells according to the OD value, and understanding the capacity of the test compound to inhibit the growth of cells or to kill the cells.
HeLa cell is a human cervical cancer cell line, and belongs to epithelial tumor cell line; HUVEC is a human umbilical vein endothelial cell, and belongs to primary endothelial cell; both types of cells express all subtypes except for JAK3.
The change of JAK kinase activity has no significant influence on other cell types except for the immune cells, and both cell models mentioned above are mainly used to evaluate whether there are any other kinase targets besides JAK kinases or there are nonselective cell toxicities.
In this experiment, a cultured cell model is incubated with the test compounds at different concentrations for a specific duration. The effect of the treatment by the test compound on the growth of cells is detected using MTS assay.
(§11) MTS is performed according to routine procedure in a 96-well plate.
(§12) The model cells are inoculated into each well of the 96-well plate at an appropriate concentration (about 5000 cells/well). After 24 h, the test compounds are added at different concentration gradients (the highest final concentration is 40 μM). A solvent control (DMSO) and a negative control are also performed at the same time. Each experiment is repeated for 3 times. The cells are detected after cultured for another 72 h.
After all culture medium is aspirated out of the well, 100 μL fresh medium and 20 μL pre-formulated mixture of MTS and PMS (in a ratio of 20:1) are added to each well. After incubation at 37° C. for 2 h, it is then detected by a microplate reader (490 nm).
The cell growth inhibitory rate and GI50 of the test compound are calculated as above.
Based on the above method, cytological evaluation is performed to the compounds described herein (for the detection of CTLL-2 cell, the concentration of the test compound is 300 nM; […]).

JAK1 = JAK1 (Homo sapiens (Human), UniProt P23458); assay: Z'-LYTE enzymatic activity detection, JAK1; format: biochemical; conditions: test compound 300 nM; for inhibition at 0.3 µM: read-out: JAK1 % inhibitory rate @300 nM
JAK1, sequence (P23458 whole entry): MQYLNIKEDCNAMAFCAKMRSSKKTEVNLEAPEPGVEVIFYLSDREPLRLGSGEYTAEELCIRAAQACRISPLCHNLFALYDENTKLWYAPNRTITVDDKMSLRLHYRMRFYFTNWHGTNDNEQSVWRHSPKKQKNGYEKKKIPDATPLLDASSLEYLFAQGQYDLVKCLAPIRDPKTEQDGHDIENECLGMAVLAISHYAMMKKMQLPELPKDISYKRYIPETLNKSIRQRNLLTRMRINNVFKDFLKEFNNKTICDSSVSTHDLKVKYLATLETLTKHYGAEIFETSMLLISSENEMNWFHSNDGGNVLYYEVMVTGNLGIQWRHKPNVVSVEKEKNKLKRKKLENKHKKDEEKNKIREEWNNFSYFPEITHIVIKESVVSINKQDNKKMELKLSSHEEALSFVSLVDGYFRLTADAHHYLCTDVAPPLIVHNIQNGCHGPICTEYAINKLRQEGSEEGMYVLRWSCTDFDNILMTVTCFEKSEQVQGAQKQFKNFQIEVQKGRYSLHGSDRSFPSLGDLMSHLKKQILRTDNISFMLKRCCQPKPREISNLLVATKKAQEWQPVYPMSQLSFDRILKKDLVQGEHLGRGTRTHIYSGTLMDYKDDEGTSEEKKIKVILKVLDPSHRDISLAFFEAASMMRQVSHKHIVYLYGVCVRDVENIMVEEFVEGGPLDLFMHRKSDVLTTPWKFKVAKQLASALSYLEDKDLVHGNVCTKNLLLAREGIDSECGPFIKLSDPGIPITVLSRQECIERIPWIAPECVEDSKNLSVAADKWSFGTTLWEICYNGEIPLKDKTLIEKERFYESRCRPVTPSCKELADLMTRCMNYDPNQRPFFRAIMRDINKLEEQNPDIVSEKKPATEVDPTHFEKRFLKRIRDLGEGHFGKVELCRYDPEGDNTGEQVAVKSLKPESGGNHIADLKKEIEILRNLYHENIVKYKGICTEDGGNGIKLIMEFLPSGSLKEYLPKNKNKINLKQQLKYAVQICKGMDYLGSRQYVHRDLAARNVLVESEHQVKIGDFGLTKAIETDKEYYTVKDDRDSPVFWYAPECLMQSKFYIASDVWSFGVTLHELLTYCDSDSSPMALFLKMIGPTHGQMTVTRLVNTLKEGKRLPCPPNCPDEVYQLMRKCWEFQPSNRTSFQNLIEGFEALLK
Description: as §1, §2, §3, §4, §5, §6, §7, §8, §9

CTLL-2 cells = assay: Cell growth activity assay (MTS), CTLL-2 cell model; format: cell-based, mouse; conditions: Mus musculus, CTLL-2, 300 nM, 24 h, read-out: CTLL-2 % growth rate @300 nM
Description: as §10
In this experiment, mouse T-cell line CTLL-2 was used. The proliferation and growth of this cell line strongly depend on IL-2, and it is commonly used to evaluate the active titer of exogenous IL-2. By inhibiting the activity of kinase JAK1/3, the proliferation of CTLL-2 can be inhibited under in vitro culture. The activation and proliferation of T-cell is also important pathological characteristics for various immunological diseases. Thus, this model is also pathologically related.
By comparing the change of absorbance generated by the cells treated by the test compounds using MTS assay, the growth inhibitory activity of the test compounds on the model cells can be realized, and thereby potential inhibitory activity of the compounds on JAK1/3 pathway can be evaluated.
as §11
as §12, with “20,000” for “5000”, “highest” for “highest final”, “of 10” for “is 40”, “24” for “72”
CTLL-2 is a suspended cell. After incubation, 20 μL pre-formulated mixture of MTS and PMS (in a ratio of 20:1) is directly added to each well. After incubation at 37° C. for 2 h, it is then detected by a microplate reader (490 nm).
The effect of the test compound on cell growth is calculated by comparing the change of OD values between the test well and the solvent control well, after subtracting the background of the negative control. For the test compounds at different concentration gradients, the inhibitory rates on the growth of model cells and their half-growth inhibitory concentrations (GI50) are each calculated.
Based on the above method, cytological evaluation is performed to the compounds described herein (for the detection of CTLL-2 cell, the concentration of the test compound is 300 nM; for the detection of HeLa and HUVEC cell, the concentration of the test compound is […]).

| Compound | inhibition at 0.03 µM (JAK2) | JAK3 RV (ratio between the inhibitory rate of the test compound and that of Xeljanz) (JAK3) | inhibition at 0.03 µM (JAK3) | activity (HeLa cells) | JAK1 RV (ratio between the inhibitory rate of the test compound and that of Xeljanz) (JAK1) | inhibition at 0.3 µM (JAK1) | activity at 0.3 µM (CTLL-2 cells) | JAK2 RV (ratio between the inhibitory rate of the test compound and that of Xeljanz) (JAK2) |
| --- | --- | --- | --- | --- | --- | --- | --- | --- |
| C=CC(=O)N(C)c1cc(Nc2ncc(Cl)c(NCCCNC(=O)Cc3ccc(C#N)cc3)n2)ccc1F [Example 64, N-(5-(5-chloro-4-(3-(2-(4-cyanophenyl)acetamino)propylamino)pyrimidinyl-2-amino)-2-fluorophenyl)-N-methylacrylamide] | 0% | 0.78 | 105% | 78% | 0.13 | 13% | 37% |  |
| C=CC(=O)N(C)c1cc(Nc2ncc(Cl)c(NCCCNS(=O)(=O)c3ccc(C#N)cc3)n2)ccc1F [Example 68, 4-cyano-N-(3-(5-chloro-2-(4-fluoro-3-(N-methylacrylamido)phenylamino)pyrimidinyl-4-amino)propyl)benzenesulfonamide] | 0% | 0.76 | 103% | 110% | 0.15 | 15% | 69% |  |
| C=CC(=O)N(C)c1cc(Nc2ncc(Cl)c(OCCCNC(=O)c3ccc(C#N)cc3)n2)ccc1F [Example 71, N-(3-(5-chloro-2-(4-fluoro-3-(N-methylacrylamido)phenylamino)pyrimidinyl-4-oxo)propyl)-4-cyano-benzamide] | 1% | 0.70 | 95% | 112% | 0.70 | 7% | 70% | 0.01 |
| C=CC(=O)N(C)c1cc(Nc2ncc(Cl)c(NCCCNC(=O)c3ccncc3)n2)ccc1F [Example 75, N-(3-(5-chloro-2-(4-fluoro-3-(N-methylacrylamido)phenylamino)pyrimidinyl-4-amino)propyl)isonicotinamide] | 0% | 0.90 | 121% | 102% | 0.14 | 14% | 49% |  |
| C=CC(=O)N(C)c1cc(Nc2ncc(Cl)c(NCCCNC(=O)c3ccc(CC)cc3)n2)ccc1F [Example 79, N-(3-(5-chloro-2-(4-fluoro-3-(N-methylacrylamido)phenylamino)pyrimidinyl-4-amino)propyl)-4-ethylbenzamide] | 0% | 0.96 | 80% | 78% | 0.22 | 19% | 3% |  |
| C=CC(=O)N(C)c1cc(Nc2ncc(Cl)c(NCCCNC(=O)c3ccc(C)cc3)n2)ccc1F [Example 83, N-(3-(5-chloro-2-(4-fluoro-3-(N-methylacrylamido)phenylamino)pyrimidinyl-4-amino)propyl)-4-methylbenzamide] | 2% | 0.92 | 76% | 70% | 0.42 | 36% | 4% | 0.04 |
| C=CC(=O)N(C)c1cc(Nc2ncc(Cl)c(NCCCNC(=O)c3ccccc3)n2)ccc1F [Example 87, N-(3-(5-chloro-2-(4-fluoro-3-(N-methylacrylamido)phenylamino)pyrimidinyl-4-amino)propyl)benzamide] | 0% | 0.99 | 82% | 22% | 0.51 | 43% | 3% |  |
| C=CC(=O)N(C)c1cc(Nc2ncc(Cl)c(NCCCNC(=O)c3cccc(C(F)(F)F)c3)n2)ccc1F [Example 91, N-(3-(5-chloro-2-(4-fluoro-3-(N-methylacrylamido)phenylamino)pyrimidinyl-4-amino)propyl)-3-trifluoromethylbenzamide] | 0% | 0.99 | 82% | 40% | 0.24 | 20% | 2% |  |
